Laboratory results as given in PubChem BioAssay (NCI).
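Cultured in 96-well plates, cells were exposed to test compound for 48 hours across five concentrations. TGI: concentration producing complete growth inhibition.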

What was measured:
Assay in all cases: NCI tumour cell line growth inhibition, 48 h
786-0 renal = system: 786-0 renal
A498 renal = system: A498 renal
A549 NSCLC = system: A549 NSCLC
ACHN renal = system: ACHN renal
BT-549 breast = system: BT-549 breast
CAKI-1 renal = system: CAKI-1 renal
CCRF-CEM leukemia = system: CCRF-CEM leukemia
COLO 205 colon = system: COLO 205 colon
DLD-1 colon = system: DLD-1 colon
DMS 114 small cell lung = system: DMS 114 small cell lung
DMS 273 small cell lung = system: DMS 273 small cell lung
DU-145 prostate = system: DU-145 prostate
EKVX NSCLC = system: EKVX NSCLC
HCC-2998 colon = system: HCC-2998 colon
HCT-116 colon = system: HCT-116 colon
HCT-15 colon = system: HCT-15 colon
HL-60(TB) leukemia = system: HL-60(TB) leukemia
HOP-18 NSCLC = system: HOP-18 NSCLC
HOP-62 NSCLC = system: HOP-62 NSCLC
HOP-92 NSCLC = system: HOP-92 NSCLC
HS 578T breast = system: HS 578T breast
HT29 colon = system: HT29 colon
IGROV1 ovarian = system: IGROV1 ovarian
K-562 leukemia = system: K-562 leukemia
KM12 colon = system: KM12 colon
KM20L2 colon = system: KM20L2 colon
LOX IMVI melanoma = system: LOX IMVI melanoma
LXFL 529 NSCLC = system: LXFL 529 NSCLC
M14 melanoma = system: M14 melanoma
M19-MEL melanoma = system: M19-MEL melanoma
MALME-3M melanoma = system: MALME-3M melanoma
MDA-MB-231 breast = system: MDA-MB-231 breast
MDA-MB-435 = system: MDA-MB-435
MDA-N = system: MDA-N
MOLT-4 leukemia = system: MOLT-4 leukemia
NCI-H226 lung = system: NCI-H226 lung
NCI-H23 lung = system: NCI-H23 lung
NCI-H460 lung = system: NCI-H460 lung
NCI-H522 lung = system: NCI-H522 lung
NCI/ADR-RES ovarian = system: NCI/ADR-RES ovarian
OVCAR-3 ovarian = system: OVCAR-3 ovarian
OVCAR-4 ovarian = system: OVCAR-4 ovarian
OVCAR-5 ovarian = system: OVCAR-5 ovarian
OVCAR-8 ovarian = system: OVCAR-8 ovarian
PC-3 prostate = system: PC-3 prostate
RPMI-8226 leukemia = system: RPMI-8226 leukemia
RXF 393 renal = system: RXF 393 renal
RXF-631 renal = system: RXF-631 renal
SF-268 CNS = system: SF-268 CNS
SF-295 CNS = system: SF-295 CNS
SF-539 CNS = system: SF-539 CNS
SK-MEL-2 melanoma = system: SK-MEL-2 melanoma
SK-MEL-28 melanoma = system: SK-MEL-28 melanoma
SK-MEL-5 melanoma = system: SK-MEL-5 melanoma
SK-OV-3 ovarian = system: SK-OV-3 ovarian
SN12C renal = system: SN12C renal
SNB-19 CNS = system: SNB-19 CNS
SNB-75 CNS = system: SNB-75 CNS
SNB-78 CNS = system: SNB-78 CNS
SR leukemia = system: SR leukemia
SW-620 colon = system: SW-620 colon
T-47D breast = system: T-47D breast
TK-10 renal = system: TK-10 renal
U251 CNS = system: U251 CNS
UACC-257 melanoma = system: UACC-257 melanoma
UACC-62 melanoma = system: UACC-62 melanoma
UO-31 renal = system: UO-31 renal
XF 498 CNS = system: XF 498 CNS

Nc1ccc(S(=O)(=O)Nc2cnc3ccccc3n2)cc1 was tested, and the TGI (786-0 renal) was > 100 µM, the TGI (A498 renal) was > 100 µM and the TGI (A549 NSCLC) was > 100 µM. The TGI (ACHN renal) was > 100 µM, the TGI (BT-549 breast) was > 100 µM and the TGI (CAKI-1 renal) was > 100 µM. For the same compound, the TGI (CCRF-CEM leukemia) was > 100 µM, the TGI (COLO 205 colon) was > 100 µM and the TGI (DLD-1 colon) was > 100 µM. For the same compound, the TGI (DMS 114 small cell lung) was > 100 µM, the TGI (DMS 273 small cell lung) was > 100 µM and the TGI (DU-145 prostate) was > 100 µM. For the same compound, the TGI (EKVX NSCLC) was > 100 µM, the TGI (HCC-2998 colon) was > 100 µM and the TGI (HCT-116 colon) was > 100 µM. The TGI (HCT-15 colon) was > 100 µM, the TGI (HL-60(TB) leukemia) was > 100 µM and the TGI (HOP-18 NSCLC) was > 100 µM. The TGI (HOP-62 NSCLC) was > 100 µM, the TGI (HOP-92 NSCLC) was > 100 µM and the TGI (HS 578T breast) was 35.3 µM. The TGI (HT29 colon) was > 100 µM, the TGI (IGROV1 ovarian) was > 100 µM and the TGI (K-562 leukemia) was > 100 µM. For the same compound, the TGI (KM12 colon) was > 100 µM, the TGI (KM20L2 colon) was > 100 µM and the TGI (LOX IMVI melanoma) was > 100 µM. The TGI (LXFL 529 NSCLC) was > 100 µM, the TGI (M14 melanoma) was > 100 µM and the TGI (M19-MEL melanoma) was > 100 µM. The TGI (MALME-3M melanoma) was > 100 µM, the TGI (MDA-MB-231 breast) was > 100 µM and the TGI (MDA-MB-435) was > 100 µM. The TGI (MDA-N) was > 100 µM, the TGI (MOLT-4 leukemia) was > 100 µM and the TGI (NCI-H226 lung) was > 100 µM. For the same compound, the TGI (NCI-H23 lung) was > 100 µM, the TGI (NCI-H460 lung) was > 100 µM and the TGI (NCI-H522 lung) was > 100 µM. The TGI (NCI/ADR-RES ovarian) was > 100 µM, the TGI (OVCAR-3 ovarian) was > 100 µM and the TGI (OVCAR-4 ovarian) was > 100 µM. The TGI (OVCAR-5 ovarian) was > 100 µM, the TGI (OVCAR-8 ovarian) was > 100 µM and the TGI (PC-3 prostate) was > 100 µM. The TGI (RPMI-8226 leukemia) was > 100 µM, the TGI (RXF 393 renal) was > 100 µM and the TGI (RXF-631 renal) was > 100 µM. The TGI (SF-268 CNS) was > 100 µM, the TGI (SF-295 CNS) was > 100 µM and the TGI (SF-539 CNS) was > 100 µM. For the same compound, the TGI (SK-MEL-2 melanoma) was > 100 µM, the TGI (SK-MEL-28 melanoma) was > 100 µM and the TGI (SK-MEL-5 melanoma) was > 100 µM. For the same compound, the TGI (SK-OV-3 ovarian) was > 100 µM, the TGI (SN12C renal) was > 100 µM and the TGI (SNB-19 CNS) was > 100 µM. The TGI (SNB-75 CNS) was > 100 µM, the TGI (SNB-78 CNS) was > 100 µM and the TGI (SR leukemia) was > 100 µM. The TGI (SW-620 colon) was > 100 µM, the TGI (T-47D breast) was > 100 µM and the TGI (TK-10 renal) was > 100 µM. The TGI (U251 CNS) was > 100 µM, the TGI (UACC-257 melanoma) was > 100 µM and the TGI (UACC-62 melanoma) was > 100 µM. For the same compound, the TGI (UO-31 renal) was > 100 µM and the TGI (XF 498 CNS) was > 100 µM.
